# Measurements as given in patent publication US9079821B2, “Quinone based nitric oxide donating compounds” (NICOX S.A., priority 2011, dated 2015).
# Legend:
# [1] = test system: NADPH-induced lipidic peroxidation of membrane lipids (hepatic microsomal membranes); experiment: In vitro antioxidant activity (TBARS test), Method A (ADP-FeCl3 and NADPH); assay type: biochemical, rat; details: inhibition of TBARS production after 30 min incubation, read-out: Antioxidant activity IC50 μM (CL 95%)
# Procedure: The antioxidant properties of compounds (6) (disclosed in example 1) and compound (23) (disclosed in example 19) and reference antioxidant compounds were assessed after NADPH-induced lipidic peroxidation of membrane lipids in rat hepatocytes using the detection of 2-thiobarbituric acid reactive substances (TBARS) by visible spectroscopy.
# Hepatic microsomal membranes from male Wistar rats (200-250 g) were prepared by differential centrifugation (8000 g, 20 min; 120000 g, 1 h) in a HEPES/sucrose buffer (10 mM, 250 mM, pH 7.4) and stored at −80° C. Incubation was performed at 37° C. in a Tris-HCl/KCl (100 mM/150 mM, pH 7.4) containing microsomal membranes (2 mg prot/mL), sodium ascorbate (100 μM), and DMSO solutions of the tested compounds. Lipid peroxidation was initiated by adding ADP-FeCl3 and NADPH (Method A) or 2.5 μM FeSO4 (Method B) (as described by Boschi D. et al., J. Med. Chem. 2006, 49:2886-2897). Aliquots were taken from the incubation mixture at 5, 15, and 30 min and treated with trichloroacetic acid (TCA) 10% w/v. Lipid peroxidation was assessed by spectrophotometric (543 nm) determination of the TBARS consisting mainly of malondialdehyde (MDA). TBARS concentrations (expressed in nmol/mg protein) were obtained by interpolation with a MDA standard curve. The antioxidant activity of tested compounds was evaluated as the percent inhibition of TBARS production with respect to control samples, using the values obtained after 30 min of incubation. IC50 values were calculated by nonlinear regression analysis.
# [2] = test system: rat L-NAME-induced hypertension; experiment: In vivo tolerance evaluation (L-NAME-induced hypertension after 5-day oral treatment); details: for Delta vs basal (mmHg): peak effect 3 hours
# Procedure: Fasted male SD rats (250-300 g, n=3-5 per group), obtained from Harlan Italy (Correzzana, Milan, Italy) were orally treated with tested compounds or vehicle (DMSO:Methocel 1% 2/98 v/v) in a total volume of 4 ml/kg by gavage. At each time point (1, 3, 6 and 24 h) animals were deeply anesthetized with Zoletil® 100 (3 mg/kg), given intramuscularly. Thereafter, a pressure catheter (Samba Sensors, Harvard Apparatus, UK) was introduced into the common carotid artery for central blood pressure measurement. Pressure transducer was connected to a personal computer, in order to allow real time monitor of the pressure tracing. After 10 minutes of basal recording, L-NAME (50 mg/kg) was administered intraperitoneally and the effect on SBP monitored. When the SBP stabilized (5 minutes without variations) the recording was stopped. To further confirm that functional activity was NO-dependent, at each time point blood ^15N-nitrite levels were measured following the procedure described in Example 12.
# To investigate whether the compound (6) induced nitrate tolerance, as observed for most of the drugs belonging to the nitrate class, the L-NAME-induced hypertension rat model described in Example 7 was performed following a repeated oral treatment. Rats were orally treated for 5 days with vehicle, compound (6) (100 mg/kg) or 5-ISMN (30 mg/kg). […] The experiments were performed at the peak effect (1 hour for 5-ISMN and 3 hours for Compound (6)), results are reported in Table 3.
smiles,measurement,setting,value
"COC1=C(OC)C(=O)C(CCCCCCCCCCO[N+](=O)[O-])=C(C)C1=O [Compound (6), 10-(4,5-dimethoxy-2-methyl-3,6-dioxocyclohexa-1,4-dienyl)decyl nitrate]",IC50,[1],2 µM
same,Delta vs basal (mmHg),"[2]; acute treatment, Comp. (6) 100 mg/kg oral",14 ± 3.8 mmHg
same,"efficacy against L-NAME-induced hypertension after 5-day treatment (nitrate tolerance), in words","[2]; compound (6) 100 mg/kg oral, 5 days",counteracted L-NAME-induced hypertension after 5-day oral treatment
same,Delta vs basal (mmHg),"[2]; repeated (5 days) oral treatment, Comp. (6) 100 mg/kg",27.8 ± 4 mmHg
